Assays:
MKK7 [1] = molecular target: T1, MKK7 (Homo sapiens, UniProt O14733, S271D/T275D); experiment: ADP-Glo assay with kinase-inhibitor pre-incubation step (phosphorylation of cov-JNK3 substrate by MKK7); format: biochemical; conditions: for luminescence intensity: raw data; for Normalized Intensity (%): normalized to Control DMSO only and Control No kinase
T1 construct: Recombinant MKK7 (full-length, S287D/T291D); made in house
T1 sequence (O14733 1-435 isoform O14733-3 S287D/T291D): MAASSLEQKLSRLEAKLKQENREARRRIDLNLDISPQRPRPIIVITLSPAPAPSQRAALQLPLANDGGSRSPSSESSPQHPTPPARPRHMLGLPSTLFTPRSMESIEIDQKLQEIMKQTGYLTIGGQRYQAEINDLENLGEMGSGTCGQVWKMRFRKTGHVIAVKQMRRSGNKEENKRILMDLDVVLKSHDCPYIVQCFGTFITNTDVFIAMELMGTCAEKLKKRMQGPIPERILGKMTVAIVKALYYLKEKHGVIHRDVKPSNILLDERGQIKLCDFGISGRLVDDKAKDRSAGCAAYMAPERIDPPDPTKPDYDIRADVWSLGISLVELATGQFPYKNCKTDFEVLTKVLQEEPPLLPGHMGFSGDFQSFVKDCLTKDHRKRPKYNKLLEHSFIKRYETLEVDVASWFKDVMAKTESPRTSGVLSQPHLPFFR
Method: The protocol described here uses Echo® 550 liquid handler. However, when performing with manual pipetting, adjusting pipetting volume of each component of the kinase reaction is required with an example provided in the above table. We had performed the following protocol using both pipetting methods, and observed similar assay quality with an example shown in Figure 3.
This part of the protocol describes a variation of the ADP-Glo^TM assay that includes a pre-incubation step between the tested inhibitors and MKK7 prior to an addition of ATP (Figure 4). […] Thus, apparent greater inhibitory potencies would be expected. The protocol below describes an experiment testing three inhibitors using fixed concentrations of 25 nM for MKK7 kinase, 30 μM for cov-JNK3 substrate and 100 μM for ATP with the layout of the assay plate shown in Figure 5. • 1. Thaw ADP-Glo^TM assay reagents. Place 10 mM ultra-pure ATP immediately on ice, while the other reagents can be kept at 22°C–25°C. • 2. Quick thaw MKK7 kinase and 10× cov-JNK3 substrate and spin both using benchtop centrifuge at high speed at 4°C for 10 min. Transfer clear supernatant into a new tube and keep on ice. • 3. Prepare 75 μL of 10× MKK7 kinase solution by diluting MKK7 to 250 nM in protein storage buffer. Keep the solution on ice until further use. • 4. Prepare the following mixtures and keep them on ice until further use. • a. Mixture 1: one part of 10× MKK7 kinase solution, one part of 10× cov-JNK3 substrate and eight part of the reaction buffer. For example, 500 μL of Mixture 1 contains 50 μL of 10× MKK7 kinase solution, 50 μL of 10× cov-JNK3 substrate and […] of the reaction buffer. This 500-μL Mixture 1 is adequate for approximately 100 reactions and will be used for the reactions containing inhibitors and the “Control DMSO only” wells (see Figure 5). • b. Mixture 2: one part of protein storage buffer, one part of 10× cov-JNK3 substrate and eight part of the reaction buffer. For example, 50 μL of Mixture 2 is made from 5 μL of protein storage buffer, 5 μL of 10× cov-JNK3 substrate and 45 μL of the reaction buffer. This 50-μL Mixture 2 is adequate for 10 reactions and is for the “Control No kinase” wells (see Figure 5). • c. Mixture 3: one part of 10× MKK7 kinase solution, one part of protein storage buffer and eight part of the reaction buffer. For example, 50 μL of Mixture 3 is made from 5 μL of 10× MKK7 kinase solution, 5 μL of protein storage buffer and 45 μL of reaction buffer. This 50-μL Mixture 3 is adequate for 10 reactions and is for the “Control No substrate” wells (see Figure 5) • 5. Prepare a serial dilution of inhibitors in a 384-well assay plate using the “Dose response” setting in Echo®550 acoustic liquid handler according to the manufacture’s manual. For this experiment, the dilution series of three inhibitors at 11 concentrations is prepared by the following steps (see also Figure 5 and Data S1 for an example input for Echo® dose response pipetting): • a. Prepare 5 mM inhibitor stock solutions in DMSO and transfer 25 μL of each into three different wells of an Echo® source plate. Fill the 4th well with 30 μL DMSO. • b. Use the “Dose response” program in Echo® 550 liquid handler with a DMSO backfill option to aliquot the correct volumes of the inhibitors and DMSO into each reaction wells in the assay plate according to the plate layout in Figure 5. Note that two intermediate compound dilutions will be created by the ECHO® dose response program (see Data S1 for an example input for Echo® dose response pipetting). 50 nL of DMSO should be transferred to each control well to ensure homogeneous assay conditions. The total transfer volume of 50 nL of either inhibitor alone, inhibitor plus DMSO or DMSO alone is fixed to ensure constant 1% final DMSO concentration (see Data S1 for an example input for Echo® dose response pipetting). • 6. […]

MKK7 [2] = molecular target: T1, MKK7; parameters: method as in Schröder et al., 2020; conditions: with vs without kinase-inhibitor pre-incubation; Figure 6; ref Schröder et al., 2020; cited from earlier work
[3] = [Inhibitor] 1.49E-05 M (log -4.83)
[4] = [Inhibitor] 1.65E-08 M (log -7.78)
[5] = [Inhibitor] 1.65E-09 M (log -8.78)
[6] = [Inhibitor] 2.43E-10 M (log -9.62)
[7] = [Inhibitor] 2.91E-07 M (log -6.54)
[8] = [Inhibitor] 4.95E-05 M (log -4.31)
[9] = [Inhibitor] 4.95E-06 M (log -5.31)
[10] = [Inhibitor] 4.95E-09 M (log -8.31)
[11] = [Inhibitor] 8.08E-10 M (log -9.09)
[12] = [Inhibitor] 8.08E-11 M (log -10.09)
[13] = [Inhibitor] 9.71E-07 M (log -6.01)
[14] = [Inhibitor] 9.71E-08 M (log -7.01)

Row | Compound | luminescence intensity (MKK7 [1]; [3]) | luminescence intensity (MKK7 [1]; [4]) | luminescence intensity (MKK7 [1]; [5]) | luminescence intensity (MKK7 [1]; [6]) | luminescence intensity (MKK7 [1]; [7]) | luminescence intensity (MKK7 [1]; [8]) | luminescence intensity (MKK7 [1]; [9]) | luminescence intensity (MKK7 [1]; [10]) | luminescence intensity (MKK7 [1]; [11]) | luminescence intensity (MKK7 [1]; [12]) | luminescence intensity (MKK7 [1]; [13]) | luminescence intensity (MKK7 [1]; [14]) | Normalized Intensity (%) (MKK7 [1]; log[Inhibitor] -4.31) | Normalized Intensity (%) (MKK7 [1]; log[Inhibitor] -4.83) | Normalized Intensity (%) (MKK7 [1]; log[Inhibitor] -5.31) | Normalized Intensity (%) (MKK7 [1]; log[Inhibitor] -6.01) | Normalized Intensity (%) (MKK7 [1]; log[Inhibitor] -6.54) | Normalized Intensity (%) (MKK7 [1]; log[Inhibitor] -7.01) | Normalized Intensity (%) (MKK7 [1]; log[Inhibitor] -7.78) | Normalized Intensity (%) (MKK7 [1]; log[Inhibitor] -8.31) | further results
1 | C=CC(=O)N1CCC[C@@H](n2nc(-c3ccc(Oc4ccccc4)cc3)c3c(N)ncnc32)C1 [Ibrutinib] | 18884 | 157972 | 195602 | 176476 | 49318 | 52382 | 64212 | 138435 | 152383 | 159956 | 22472 | 121319 | 17.05% | -1.74% | 23.69% | 0.27% | 15.33% | 55.73% | 76.30% | 65.34% | Normalized Intensity (%) (MKK7 [1]; log[Inhibitor] -8.78): 97.41%; Normalized Intensity (%) (MKK7 [1]; log[Inhibitor] -9.09): 73.16%; Normalized Intensity (%) (MKK7 [1]; log[Inhibitor] -9.62): 86.68%; Normalized Intensity (%) (MKK7 [1]; log[Inhibitor] -10.09): 77.41%
2 | CC(=O)c1cnc2ccc(-c3cc(Cl)c(O)c(Cl)c3)nc2c1N[C@H]1CC[C@H](CN(C)C)CC1 [OTSSP167] | 50306 | 167511 | 188762 | 186492 | 53403 | 62181 | 22921 | 186941 | 193825 | 208349 | 43374 | 94669 | 22.55% | 15.89% | 0.52% | 12.00% | 17.63% | 40.78% | 81.65% | 92.55% | Normalized Intensity (%) (MKK7 [1]; log[Inhibitor] -8.78): 93.57%; Normalized Intensity (%) (MKK7 [1]; log[Inhibitor] -9.09): 96.42%; Normalized Intensity (%) (MKK7 [1]; log[Inhibitor] -9.62): 92.30%; Normalized Intensity (%) (MKK7 [1]; log[Inhibitor] -10.09): 104.56%; shift of inhibitory potencies (IC50) between the two assay variants (MKK7 [2]): less pronounced
